# Experimental data: patent US20220354811A1, “METHODS AND COMPOSITIONS FOR MODULATING MACROPHAGES POLARIZATION” (INSERM (INSTITUT NATIONAL DE LA SANTÉ ET DE LA RECHERCHE …, priority 2019, published 2022)
# Assays:
# primary human monocytes = assay: Cell death in CSF-1-treated differentiating monocytes (AnnexinV/DAPI flow cytometry); type: cell-based
# Text: FIG. 1. […] (A) Macrophagic differentiation of monocytes from 3 different healthy donors was examined by 3-color flow cytometric analysis. The results are expressed as percentage of CD71/CD163 or CD16/CD163 double positive cells and represent the mean±SD of 3 independent experiments performed in duplicate. (B) Cell death from 3 different healthy donors was examined by flow cytometry analysis. The results are expressed as percentage of AnnexinV/DAPI double positive cells and represent the mean±SD of 3 independent experiments performed in duplicate. n.s. denotes not statistically significant according to a paired student t test. *P<0.05, **P<0.01, ***P<0.001 according to a paired student t test (versus d2).
# To analyze the macrophagic differentiation of monocytes, the cells were washed with ice-cold phosphate buffered saline (PBS, Life Technologies, 14190169), incubated at 4° C. for 10 min in PBS/bovine serum albumin (BSA 0.5%, Dutscher, 871002) with anti-CD16, anti-CD71 and anti-CD163 or isotype controls (Miltenyi and BD Biosciences, catalog numbers were 130-113-396, 130-097-628 and 551374). Finally, the cells were washed and fixed in 2% paraformaldehyde (EMS, 15710). To perform macrophage polarization, purified monocytes were plated at 0.3×10^6 per mL in RPMI 1640 medium with glutamax-I supplemented with 10% (vol/vol) fetal bovine serum plus CSF-1 for 5+2 days to differentiate into M0 macrophages. 20 ng/mL IL-4 (Miltenyi, 130-094-117) was added after 5 days of differentiation for two days to polarize into M2-macrophages. To analyze the macrophage polarization, cells were detached using PBS/EDTA/BSA, washed with PBS, and incubated at 4° C. for 10 min in PBS/bovine serum albumin with anti-CD200R (Biolegend, 329308), anti-CD206 (Miltenyi, 130-100-034) and anti-CD163 (Miltenyi, 130-097-628) or isotype controls. Finally, the cells were washed and fixed in 2% paraformaldehyde (EMS, 15710). Fluorescence was measured with a MACSQuant® Analyzer (Miltenyi, Paris, France). To analyze the cell death, cells were washed with ice-cold PBS and incubated at 4° C. for 15 min in a specific buffer (10 mM HEPES, 150 mM NaCl, 5 mM KCl, 1 mM MgCl2, 1 mM CaCl2) with AnnexinV-FITC (Miltenyi, 130-097-928) and DAPI (Sigma-Aldrich, D9542). Fluorescence was measured with a MACSQuant® Analyzer (Miltenyi, Paris, France). To analyze the ability of macrophages to phagocyte bacteria, we used Vybrant® Phagocytosis Assay Kit according manufacture's instruction (ThermoFisher, V-6694). […] Fluorescence, that indicate the internalization of particles, was measured with a MACSQuant® Analyzers (Miltenyi, France). Trypan blue solution was used to quench the fluorescence from particles that were not internalized. […]
# [1] = test system: IL4-polarized macrophages; assay: mRNA expression in IL-4-polarized macrophages (RNAseq, qPCR); type: cell-based, human
# Protocol: Human monocytes were differentiated during 5 days with 50 ng/mL CSF-1 and then polarized into MO-macrophages (CSF-1) or M2-macrophages (IL-4) for 24 (mRNA) or 48 hours. […] The expression of the indicated mRNA is analyzed by qPCR (mean ±SEM of 6 independent experiments). *P<0.05, **P<0.01 according to a paired student t test (versus M2-macrophages).
# The RNA integrity (RNA Integrity Score≥7.0) was checked on the Agilent 2100 Bioanalyzer (Agilent) and quantity was determined using Qubit (Invitrogen). SureSelect Automated Strand Specific RNA Library Preparation Kit was used according to manufacturer's instructions with the Bravo Platform. Briefly, 50 to 200 ng of total RNA sample was used for poly-A mRNA selection using oligo(dT) beads and subjected to thermal mRNA fragmentation. The fragmented mRNA samples were subjected to cDNA synthesis and were further converted into double stranded DNA using the reagents supplied in the kit, and the resulting dsDNA was used for library preparation. The final libraries were bar-coded, purified, pooled together in equal concentrations and subjected to paired-end sequencing on Novaseq-6000 sequencer (Illumina) at Gustave Roussy.
# Quantification. Quality of raw FastQ files was assessed with Fastqc v0.11.8 and Fastq-screen v0.13.0. Quality report was gathered with MultiQC v1.8. Abundance estimation was performed with Salmon v0.14.1 using following parameters: —libType A —validateMappings —numBootstraps 60. Salmon index was created using Human Gencode reference annotation release 33 and using following parameters —gencode —keepDuplicates. Differential analysis. Statistical analysis was performed using R 3.6.1. Transcript expression levels were aggregated in gene expression levels using tximport v1.14.0 Bioconductor package. At this step only protein coding genes were considered. We also decided to keep only high quality annotations therefore genes annotated as “automated annotation” in GENCODE were discarded. DESeq2 v1.26.0 method was used to identify differentially expressed genes between groups with an adjusted p-value threshold of 0.05.
# RNA was prepared from 5×10^6 cells using the RNeasy Mini Kit according to manufacturer's protocol (Qiagen, 74104). Each cDNA sample was prepared using AMV RT and random primers (Promega, M510F and C1181). Real-time polymerase chain reaction (PCR) was performed using the SyBR Green detection protocol (Life Technologies, 4367659). Briefly, 5 ng of total cDNA, 500 nM (each) primers, and 5 μL SyBR Green mixture were used in a total volume of 10 μL. Detection of multiple endogenous controls (ACTB, L32 and UBIQUITIN) were used to normalize the results. Specific forward and reverse primers are accessible upon request.
# [2] = test system: CSF-1-derived human macrophages; assay: IL-4-induced M2 polarization of CSF-1-derived macrophages (flow cytometry CD200R/CD206, CD200R/CD163); type: cell-based
# Protocol: FIG. 6. […] Human monocytes were differentiated during 7 days with 100 ng/mL CSF-1. […] The results are expressed as MFI and represent the mean of 3 independent experiments performed in duplicate. **P<0.01 according to a paired student t test (B) Macrophage polarization was evaluated by 3-color flow cytometric analysis. The percentage indicates cells that express both CD206/CD200R or CD163/CD200R. The results represent the mean±SD of 3 independent experiments performed in duplicate. **P<0.01, ***P<0.001 according to a paired student t test. Human monocytes were differentiated during 5 days with 100 ng/mL CSF-1 and then polarized into M2-macrophages (IL-4) for 2 days. […] The results are expressed as percentage of CD200R/CD206 or CD200R/CD163 double positive cells and represent the mean±SD of 3 independent experiments performed in duplicate.
# To analyze the macrophagic differentiation of monocytes, the cells were washed with ice-cold phosphate buffered saline (PBS, Life Technologies, 14190169), incubated at 4° C. for 10 min in PBS/bovine serum albumin (BSA 0.5%, Dutscher, 871002) with anti-CD16, anti-CD71 and anti-CD163 or isotype controls (Miltenyi and BD Biosciences, catalog numbers were 130-113-396, 130-097-628 and 551374). Finally, the cells were washed and fixed in 2% paraformaldehyde (EMS, 15710). To perform macrophage polarization, purified monocytes were plated at 0.3×10^6 per mL in RPMI 1640 medium with glutamax-I supplemented with 10% (vol/vol) fetal bovine serum plus CSF-1 for 5+2 days to differentiate into M0 macrophages. 20 ng/mL IL-4 (Miltenyi, 130-094-117) was added after 5 days of differentiation for two days to polarize into M2-macrophages. […] Fluorescence was measured with a MACSQuant® Analyzer (Miltenyi, Paris, France). […] Fluorescence was measured with a MACSQuant® Analyzer (Miltenyi, Paris, France). […] Fluorescence, that indicate the internalization of particles, was measured with a MACSQuant® Analyzers (Miltenyi, France). Trypan blue solution was used to quench the fluorescence from particles that were not internalized. […]
# [3] = qPCR, Emricasan 3 μM added 16h before polarization
smiles,measurement,setting,value
"C[C@H](NC(=O)C(=O)Nc1ccccc1C(C)(C)C)C(=O)N[C@@H](CC(=O)O)C(=O)COc1c(F)c(F)cc(F)c1F [Emricasan, (S)-3-((S)-2-(2-((2-(tert-Butyl)phenyl)amino)-2-oxoacetamido)propanamido)-4-oxo-5-(2,3,5,6-tetrafluorophenoxy)pentanoic acid]",apoptosis induction in undifferentiated monocytes,primary human monocytes,did not induce apoptosis
same,DAPI staining,primary human monocytes; higher concentrations (3 μM),slightly increased DAPI staining
same,toxicity for primary human monocytes,primary human monocytes; low concentrations (up to 2 μM),not toxic
same,Annexin V staining,"primary human monocytes; low concentrations, CSF-1, 48 h",failed to induced significant loss of Annexin V staining
same,IL-4 induction of anti-inflammatory and repression of pro-inflammatory markers (RNAseq),[1]; macrophages from three different donors,counteracted
same,IL-4-increased CCL18 mRNA expression,[1]; [3],counteracted
same,IL-4-increased CD200R mRNA expression,[1]; [3],counteracted
same,CXCL8 mRNA level,"[1]; qPCR, IL-4 combined with Emricasan 3 μM",upregulated
same,M1-like markers,[2]; 5 days CSF-1 then IL-4 2 days,induced M1-like markers
same,M2-like polarization of M0 macrophages induced by IL4,[2]; 5 days CSF-1 then IL-4 2 days,dampened
same,generation of CD200R+/CD206+ and CD200R+/CD163+ double-positive cells,"[2]; IL4-polarized macrophages, Emricasan added 16 h before IL-4",inhibited
